ChEMBL document CHEMBL4673190, “Recent developments in anticancer kinase inhibitors based on the pyrazolo[3,4-d]pyrimidine scaffold” (RSC Med Chem, 2020)
pEC50, pIC50: −log10 of the molar value. Values belong to the compound of their own block, whether it stands above or below them.

Columns and labels:
[1] = target: Cyclin-dependent kinase 2/cyclin E1 (Homo sapiens, UniProt P24941); test: Inhibition of CDK2/cyclin E (unknown origin) expressed in baculovirus infected Sf21 insect cells using histone H1 as substrate in presence of [gamma33P]ATP
[2] = species on record: Homo sapiens; test: Selectivity index, ratio of IC50 for human JAK1 expressed in baculovirus expression system to IC50 for human JAK3 expressed in baculovirus expression system
[3] = species on record: Homo sapiens; test: Selectivity index, ratio of IC50 for human JAK2 expressed in baculovirus expression system to IC50 for human JAK3 expressed in baculovirus expression system
[4] = target: T1, Tyrosine-protein kinase JAK3 (Homo sapiens, UniProt P52333); test: Inhibition of JAK3 (unknown origin)
T1 sequence (P52333 whole entry): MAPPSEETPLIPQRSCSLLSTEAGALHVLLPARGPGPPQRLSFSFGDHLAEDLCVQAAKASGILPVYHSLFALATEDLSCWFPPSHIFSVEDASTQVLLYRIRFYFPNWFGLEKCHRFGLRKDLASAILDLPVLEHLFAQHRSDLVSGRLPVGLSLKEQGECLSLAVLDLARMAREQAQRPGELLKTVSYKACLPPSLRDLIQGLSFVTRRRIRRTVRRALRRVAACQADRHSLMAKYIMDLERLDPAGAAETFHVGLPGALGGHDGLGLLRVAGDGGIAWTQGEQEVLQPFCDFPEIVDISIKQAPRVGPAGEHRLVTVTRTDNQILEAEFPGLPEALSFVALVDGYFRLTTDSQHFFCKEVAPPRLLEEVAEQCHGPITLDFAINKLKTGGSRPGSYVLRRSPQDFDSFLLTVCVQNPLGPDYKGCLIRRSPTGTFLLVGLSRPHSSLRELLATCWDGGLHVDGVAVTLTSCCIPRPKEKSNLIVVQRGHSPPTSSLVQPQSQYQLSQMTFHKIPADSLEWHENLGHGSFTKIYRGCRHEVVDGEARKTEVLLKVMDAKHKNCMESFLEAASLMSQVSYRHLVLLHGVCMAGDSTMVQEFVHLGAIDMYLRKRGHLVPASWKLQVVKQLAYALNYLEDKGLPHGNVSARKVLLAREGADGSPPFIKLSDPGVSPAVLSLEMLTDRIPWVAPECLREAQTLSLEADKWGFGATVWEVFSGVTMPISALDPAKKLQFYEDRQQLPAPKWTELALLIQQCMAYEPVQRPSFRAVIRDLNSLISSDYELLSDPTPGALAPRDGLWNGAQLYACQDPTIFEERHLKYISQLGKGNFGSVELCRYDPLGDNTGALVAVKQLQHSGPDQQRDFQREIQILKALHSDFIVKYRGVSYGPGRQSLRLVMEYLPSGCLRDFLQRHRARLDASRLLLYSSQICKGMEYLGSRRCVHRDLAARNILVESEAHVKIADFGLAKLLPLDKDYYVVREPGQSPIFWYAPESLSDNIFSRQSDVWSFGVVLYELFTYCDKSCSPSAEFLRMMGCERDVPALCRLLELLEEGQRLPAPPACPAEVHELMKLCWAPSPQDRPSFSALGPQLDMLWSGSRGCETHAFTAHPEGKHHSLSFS

[5] = test system: HepG2; test: Cytotoxicity against human HepG2 cells incubated for 72 hrs by MTT assay; format: functional, cell-based; settings: HepG2, 72 h
[6] = test system: A549; test: Cytotoxicity against human A549 cells incubated for 72 hrs by MTT assay; format: functional, cell-based; settings: A549, 72 h
[7] = test system: MCF7; test: Cytotoxicity against human MCF-7 cells incubated for 72 hrs by MTT assay; format: functional, cell-based; settings: MCF7, 72 h
[8] = target: Vascular endothelial growth factor receptor 2 (Homo sapiens, UniProt P35968); test: Inhibition of N-terminal GST-tagged human VEGFR2 (805 to 1356 residues) expressed in a baculovirus infected Sf9 insect cell incubated for 45 mins by Kinase-Glo max reagent-based luminescence assay
Vascular endothelial growth factor receptor 2, sequence (P35968 whole entry, the tested form may be a part): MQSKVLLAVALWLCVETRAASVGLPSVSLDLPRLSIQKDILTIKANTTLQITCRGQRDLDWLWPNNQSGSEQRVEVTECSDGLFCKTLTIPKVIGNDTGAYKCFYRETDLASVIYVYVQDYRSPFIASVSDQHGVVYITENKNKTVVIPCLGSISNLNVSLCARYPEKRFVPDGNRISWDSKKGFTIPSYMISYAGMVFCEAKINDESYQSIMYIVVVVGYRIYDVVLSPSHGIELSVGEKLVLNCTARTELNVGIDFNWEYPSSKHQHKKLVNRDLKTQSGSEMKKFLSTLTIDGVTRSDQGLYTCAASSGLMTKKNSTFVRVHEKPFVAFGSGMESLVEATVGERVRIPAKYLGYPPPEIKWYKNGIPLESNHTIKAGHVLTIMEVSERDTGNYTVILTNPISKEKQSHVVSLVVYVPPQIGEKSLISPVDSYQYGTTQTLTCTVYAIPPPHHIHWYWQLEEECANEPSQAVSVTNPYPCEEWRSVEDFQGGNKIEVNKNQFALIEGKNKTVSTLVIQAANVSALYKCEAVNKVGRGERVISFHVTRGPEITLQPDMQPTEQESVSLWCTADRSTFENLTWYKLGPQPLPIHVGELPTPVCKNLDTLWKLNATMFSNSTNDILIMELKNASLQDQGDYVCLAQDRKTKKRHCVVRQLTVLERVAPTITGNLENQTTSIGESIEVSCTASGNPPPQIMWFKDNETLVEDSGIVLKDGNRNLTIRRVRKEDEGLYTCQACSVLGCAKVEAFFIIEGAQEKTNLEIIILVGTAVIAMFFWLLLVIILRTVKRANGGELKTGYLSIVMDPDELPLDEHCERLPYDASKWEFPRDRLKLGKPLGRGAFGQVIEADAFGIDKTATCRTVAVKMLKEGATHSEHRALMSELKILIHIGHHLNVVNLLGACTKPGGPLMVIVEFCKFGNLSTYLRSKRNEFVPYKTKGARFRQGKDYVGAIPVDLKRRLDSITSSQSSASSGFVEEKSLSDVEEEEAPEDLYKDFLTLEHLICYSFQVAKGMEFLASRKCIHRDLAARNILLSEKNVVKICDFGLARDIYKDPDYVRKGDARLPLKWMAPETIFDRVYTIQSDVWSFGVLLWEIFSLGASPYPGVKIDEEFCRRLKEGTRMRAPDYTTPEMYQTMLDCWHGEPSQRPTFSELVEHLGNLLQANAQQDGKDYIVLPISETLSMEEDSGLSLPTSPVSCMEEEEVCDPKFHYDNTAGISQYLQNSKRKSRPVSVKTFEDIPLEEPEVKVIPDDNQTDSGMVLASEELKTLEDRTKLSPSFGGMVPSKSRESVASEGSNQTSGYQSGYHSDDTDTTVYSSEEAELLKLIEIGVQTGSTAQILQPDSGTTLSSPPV

pIC50 [1]: 5.17
Structure (SMILES): O=C(Oc1nc(SCCc2ccccc2)nc2[nH]ncc12)c1cc2ccccc2o1

pIC50 [1]: 5.29
Structure (SMILES): O=[N+]([O-])c1cccc(Nc2nc(SCCc3ccccc3)nc3[nH]ncc23)c1

Ratio IC50 [2]: > 376 | Ratio IC50 [3]: > 376
Structure (SMILES): C=CC(=O)Nc1cccc(Cn2ncc3cnc(Nc4cnn(CCOC)c4)nc32)c1

The next lines start with the compound.

Structure (SMILES): C[C@@H]1CCN(C(=O)CC#N)C[C@@H]1N(C)c1ncnc2[nH]ncc12
pIC50 [4]: 8.80

Structure (SMILES): Cc1c(C(=O)Nc2ccc(Oc3ncnc4c3cnn4C)c(F)c2)nnn1-c1ccc(F)cc1
pEC50 [5]: ≥ 5.00 | pEC50 [6]: ≥ 5.00 | pEC50 [7]: ≥ 5.00

Structure (SMILES): COc1ccc(-n2nc(C)c3c(Nc4ccc(NC(=O)Nc5ccc(Cl)c(C(F)(F)F)c5)cc4)ncnc32)cc1
pIC50 [8]: 6.66
